From patent US20030207886A1, “Preparation containing quinoxaline derivatives” (priority 2000, published 2003)

Assay: Maxima of UV-A and UV-B absorption of quinoxaline derivatives in 2-propanol
Format: physicochemical
Settings: 1 mg of substance per 100 ml of solvent; for UV-B (280 320 nm) Max. abs.: absorbance at UV-B maximum; for UV-B (280 320 nm) λ [nm]: wavelength of UV-B maximum; for UV-A (400 320 nm) Max. abs.: absorbance at UV-A maximum; for UV-A (400 320 nm) λ [nm]: wavelength of UV-A maximum
Protocol: The measurement was carried out in 2-propanol at a concentration of 1 mg of substance per 100 ml of solvent.

| Structure (SMILES) | UV-B (280 320 nm) Max. abs. | UV-B (280 320 nm) λ [nm] | UV-A (400 320 nm) Max. abs. | UV-A (400 320 nm) λ [nm] |
| --- | --- | --- | --- | --- |
| CC(C)c1ccc(C(=O)c2nc3ccccc3nc2C(=O)c2ccc(C(C)C)cc2)cc1 | 0.45 | 280.0 nm | – | – |
| c1ccc(CNc2cnc3ccccc3n2)cc1 | – | – | 0.2602 | 364.0 nm |
| CCOC(=O)c1nc2ccccc2[nH]c1=O | 0.279 | 290.0 nm | 0.245 | 355.8 nm |
| CCOC(=O)c1nc2ccccc2nc1Cl | – | – | 0.243 | 322.9 nm |
| CC(C)OC(=O)c1ccc(Nc2cnc3ccccc3n2)cc1 | 1.262 | 306.7 nm | 0.555 | 374.3 nm |
| CCOC(=O)c1nc2ccccc2nc1Nc1ccc(C(C)=O)cc1 | – | – | 1.2265 | 328.5 nm |
| O=C(O)c1ccc(Nc2cnc3ccccc3n2)cc1 | 1.141 | 297.2 nm | 0.378 | 374.1 nm |
| COC(=O)c1cc(Nc2cnc3ccccc3n2)cc(C(=O)OC)c1 | 0.789 | 287.7 nm | 0.322 | 368.3 nm |
| CC(C)OC(=O)c1ccc(Nc2nc3ccccc3nc2-c2ccccc2)cc1 | 0.849 | 305.3 nm | 0.342 | 381.9 nm |
| Cc1ccc(/C=C/c2nc3ccccc3nc2/C=C/c2ccc(C)cc2)cc1 | 0.3327 | 316.0 nm | – | – |
| CC(=O)c1nc2ccccc2nc1C(C)=O | 0.3011 | 310.0 nm | – | – |
| C(#Cc1nc2ccccc2nc1C#Cc1ccccc1)c1ccccc1 | 0.8366 | 294.0 nm | 0.4443 | 385.0 nm |
| CCOC(=O)c1ccc(Nc2cnc3ccccc3n2)cc1 | 1.2839 | 306.0 nm | 0.5414 | 375.0 nm |
| O=C(O)c1ccc(Nc2nc3ccccc3nc2-c2ccccc2)cc1 | 0.452 | 303.8 nm | 0.325 | 376.8 nm |
| COc1cc(Nc2nc3ccccc3nc2-c2ccccc2)c(C(=O)O)cc1OC | 0.635 | 285.6 nm | 0.235 | 393.4 nm |
| Nc1nc2ccccc2nc1Cl | – | – | 0.427 | 353.4 nm |
| Brc1cnc2ccccc2n1 | – | – | 0.4424 | 321.0 nm |
| Cc1ccc(S(=O)(=O)c2cnc3ccccc3n2)cc1 | – | – | 0.1595 | 321.0 nm |
| Cc1nc2ccc(Cl)cc2nc1C | – | – | 0.400 | 322.0 nm |
| Clc1ccc(Nc2cnc3ccccc3n2)c(Cl)c1 | 0.757 | 280.7 nm | 0.248 | 365.2 nm |
| O=C(O)c1cc(Nc2cnc3ccccc3n2)cc(C(=O)O)c1 | 0.887 | 286.9 nm | 0.319 | 372.8 nm |

| Structure (SMILES) | UV-B (280 320 nm) Max. abs. | UV-B (280 320 nm) λ [nm] | UV-A (400 320 nm) Max. abs. | UV-A (400 320 nm) λ [nm] |
| --- | --- | --- | --- | --- |
| CCOC(=O)c1nc2ccccc2nc1Nc1ccc(C(=O)O)cc1 | 1.270 | 311.5 nm | – | – |
| CC(=O)c1ccc(Nc2cnc3ccccc3n2)cc1 | 1.062 | 314.7 nm | 0.622 | 374.9 nm |
| Cc1ccc(/C=C/c2nc3ccccc3[nH]c2=O)cc1 | – | – | 0.4660 | 336.0 nm |
| COC(=O)CCc1ccc2nc3nc4ccccc4nc3n2c1 | – | – | 0.3747 | 349.5 nm |
| O=C(c1ccccc1)c1cnc2ccccc2n1 | 0.330 | 300.0 nm | – | – |
| O=C(O)c1ccc(CNc2nc3ccccc3nc2Cl)cc1 | 0.2183 | 290.0 nm | – | – |
| O=C(O)c1ccc(Nc2cnc3ccccc3n2)c(O)c1 | – | – | 0.5594 | 381.0 nm |
| COc1cc(Nc2cnc3ccccc3n2)c(C(=O)O)cc1OC | 0.455 | 300.1 nm | 0.456 | 380.1 nm |
| O=C(O)c1ccc(NCc2cnc3ccccc3n2)cc1 | 0.837 | 302.9 nm | – | – |
| CC(C)(C)OC(=O)c1ccc(Nc2cnc3ccccc3n2)cc1 | 1.172 | 306.3 nm | 0.506 | 374.3 nm |
| CCC(=O)c1cnc2ccccc2n1 | 0.3236 | 307.0 nm | – | – |
| c1ccc2nc(Oc3cnc4ccccc4n3)cnc2c1 | – | – | 0.2587 | 320.0 nm |
| c1ccc2nc(-c3cnc4ccccc4n3)cnc2c1 | – | – | 0.7687 | 341.0 nm |
| CC(C)(C)OC(=O)c1ccc(Nc2nc3ccccc3nc2Cl)cc1 | 0.4672 | 291.0 nm | – | – |
| CCOC(=O)c1nc2ccccc2nc1Nc1cc(F)c(F)cc1C(=O)O | 0.4067 | 287.0 nm | 0.1187 | 381.5 nm |
| CCOC(=O)c1nc2ccccc2nc1Nc1cc(OC)c(OC)cc1C(=O)O | 0.5713 | 295.0 nm | – | – |
| CCC(CC)COC(=O)c1ccc(Nc2cnc3ccccc3n2)c(O)c1 | 0.5569 | 291.0 nm | – | – |
| Fc1cc(F)c(N(c2cnc3ccccc3n2)c2cnc3ccccc3n2)c(F)c1 | 0.966 | 289.3 nm | – | – |
| CN(C)c1cnc2ccccc2n1 | – | – | 0.413 | 378.0 nm |
| Fc1nc2ccccc2nc1N(c1ncccn1)c1nc2ccccc2nc1F | – | – | 0.446 | 329.8 nm |
| O=c1[nH]c2ccccc2nc1-c1ccccc1 | 0.373 | 305.0 nm | 0.360 | 365.0 nm |

| Structure (SMILES) | UV-B (280 320 nm) Max. abs. | UV-B (280 320 nm) λ [nm] | UV-A (400 320 nm) Max. abs. | UV-A (400 320 nm) λ [nm] |
| --- | --- | --- | --- | --- |
| Fc1ccc2nc3nc4ccccc4nc3n2c1 | – | – | 0.132 | 344.6 nm |
| O=C(/C=C/C=C/c1ccccc1)c1cnc2ccccc2n1 | 0.6584 | 302.0 nm | 1.0497 | 365.0 nm |
| FC(F)(F)c1cc(Nc2cnc3ccccc3n2)cc(C(F)(F)F)c1 | – | – | 0.262 | 359.8 nm |
| c1ccc2nc3c(nc2c1)nc1ccccn13 | – | – | 0.411 | 348.3 nm |
| Brc1ccc2nc3nc4ccccc4nc3n2c1 | – | – | 0.4113 | 354 nm |
| Clc1nc2ccccc2nc1-c1ccccc1 | – | – | 0.173 | 335.0 nm |
| O=C(c1ccccc1)c1ccccc1Nc1cnc2ccccc2n1 | – | – | 0.424 | 395.4 nm |
| COc1cc(Nc2cnc3ccccc3n2)cc(OC)c1OC | 0.679 | 275.6 nm | 0.281 | 386.1 nm |
| CC(C)c1ccc(/C=C/C(=O)c2cnc3ccccc3n2)cc1 | – | – | 0.7731 | 343.0 nm |
| Nc1nc2ccccc2nc1NC(=O)c1cc(C(F)(F)F)cc(C(F)(F)F)c1 | – | – | 0.4130 | 354.0 nm |
| O=C(OC/C=C/c1ccccc1)c1ccccc1Nc1cnc2ccccc2n1 | – | – | 0.469 | 386.3 nm |
| COc1ccc(Nc2cnc3ccccc3n2)cc1 | 0.837 | 291.1 nm | 0.306 | 386.9− nm |
| Clc1nc2ccccc2nc1C#Cc1ccccc1 | 0.6431 | 286.0 nm | – | – |
| O=c1[nH]c2ccccc2nc1/C=C/c1ccccc1 | – | – | 0.7324 | 388.5 nm |
| CCOC(=O)CCC(NC(=O)c1ccc(Nc2cnc3ccccc3n2)cc1)C(=O)OCC (centres unmarked) | 0.756 | 307.0 nm | 0.3076 | 380.0 nm |
| FC(F)(F)c1cc(CNc2cnc3ccccc3n2)cc(C(F)(F)F)c1 | – | – | 0.192 | 359.0 nm |
| CCOC(=O)c1nc2ccccc2nc1Nc1cc(OC)c(OC)c(OC)c1 | 0.614 | 295.6 nm | – | – |
| CCc1ccn2c(c1)nc1nc3ccccc3nc12 | – | – | 0.536 | 356.1 nm |
| COc1cc(Nc2nc3ccccc3nc2-c2ccccc2)cc(OC)c1OC | 0.475 | 287.6 nm | 0.175 | 390.4 nm |
| CC(=O)c1ccn2c(c1)nc1nc3ccccc3nc12 | – | – | 0.533 | 364.8 nm |
| O=C(/C=C/c1ccc2c(c1)OCO2)c1cnc2ccccc2n1 | 0.4556 | 305.0 nm | 0.5101 | 381.0 nm |
